Counter-ions that a name gives are not always drawn.
Key:
HCT116 [1] = assay: AC50 cell viability (CellTiter-Glo); higher = less potent; conditions: 48 h
HCT116 [2] = assay: efficacy (fitted maximal change in viability relative to DMSO control); higher = less cytotoxic (negative = loss of viability); conditions: 48 h
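For AC50 cell viability (CellTiter-Glo) in this document: HCT116 colorectal carcinoma cells screened at five concentrations per compound, luminescent viability scaled between DMSO wells and empty wells on each plate, curves fitted per compound.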
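For efficacy (fitted maximal change in viability relative to DMSO control) in this document: Luminescence-based viability readout, five doses per compound, normalized against on-plate DMSO and empty-well controls, followed by dose-response curve fitting for every drug.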

SMILES | AC50 cell viability (HCT116 [1]) [µM] | efficacy (HCT116 [2]) [%]
Cc1ccc(Nc2ncc3c(n2)N(C)C(=O)N(c2cc(NC(=O)c4cccc(C(F)(F)F)c4)ccc2C)C3)cn1 [GNF-7] | 0.0332 | -69.3
Cc1ccc(NC(=O)Nc2cc(C(F)(F)F)ccc2F)cc1Nc1ccc2c(c1)NC(=O)/C2=C\c1ccc[nH]1 [GNF-5837] | 14.8 | -97.5
NC1=NC(=C(C#N)C(=N1)N)N[C@@H](C2CC2)\C3=N\C4=C(C(=CC=C4F)Cl)C(=O)N3C5=CC=CN=C5 [GS-9901] | 18.6 | -71
O=C/1NC(=O)C(=C1C2=CN=C3C=CC=C[N]23)/C4=C[N]5CCN(CC6=C5C4=CC=C6)C(=O)N7CCOCC7 [GSK3 Inhibitor] | 9.34 | -85.7
CC\1=C(C(\N=C(/N1)C2=CC(=NC=C2)Cl)C3=C(F)C=C(Cl)C=C3)/C(=O)NC4=C(F)C=C5[NH]N=CC5=C4 (centres undefined) [GSK-25] | 29.5 | -97.8
CCCC\1=C(/CNC(=O)C2=CC(=CC3=C2C=N[N]3C(C)C)C4=CC(=NC=C4)N5CCN(C)CC5)C(=O)NC(=C1)\C [GSK-343] | 23.5 | -101
COc1cc(C(=O)N2CC[C@@H](O)[C@@H](N)C2)cc2nc(-c3cc4ccccc4n3CC3CC3)n(C)c12 [GSK-484] | 23.5 | -94.1
Cc1cc(C)c(C/N=C(\O)c2cc(-c3ccc(N4CCN(C)CC4)nc3)cc3c2c(C)cn3C(C)C)c(O)n1 [GSK-503] | 23.5 | -103
O=C1NC(=O)/C(=C/c2ccc3nccc(-c4ccncc4)c3c2)S1 [GSK-615] | 0.934 | -82.3
CC(C)(C)OC(=O)CN(Cc1ccc(Cl)cc1)Cc1ccc([N+](=O)[O-])s1 [GSK-4112] | 20.9 | -40.6
COc1ccccc1C(=O)Nc1cc2c(cc1N1CCNC[C@H]1C)n(C)c(=O)n2C [GSK-6853] | 16.6 | -63.8
CCOC(=O)CCNc1cc(N2CCc3ccccc3CC2)nc(-c2ccccn2)n1 [GSK-J4] | 2.95 | -90.6
COc1ccc(COc2ccc(Cc3cnc(N)nc3N)cc2OC)cc1 [GW-2580] | 14.8 | -96.7
Cc1ccc(C(=O)Nc2ccc(CN3CCN(C)CC3)c(C(F)(F)F)c2)cc1C#Cc1cnc2[nH]ncc2c1 [GZD-824] | 0.934 | -121
C[C@]\12CC[C@H](O)CC1=C/CC3C2CC[C@@]\4(C)C3C\C=C4[N]5C=NC6=C5C=CC=C6 (some centres undefined) [Galeterone] | 5.9 | -43.8
Cc1cc(Nc2cc(CN3CCOCC3)c3nc(C)c(Cc4ccc(Cl)cc4F)n3n2)[nH]n1 [Gandotinib] | 5.9 | -110
CC(C)C1=C(O)C=C(O)C(=C1)C/2=N/NC(=O)N2C3=CC4=C(C=C3)[N](C)C=C4 [Ganetespib (STA-9090)] | 0.0742 | -62.3
CCNCc1nc2c(N)nc3ccccc3c2n1CC(C)(C)O [Gardiquimod] | 16.6 | -62
CN(C)C1CCN(C(=O)c2ccc(NC(=O)Nc3ccc(-c4nc(N5CCOCC5)nc(N5CCOCC5)n4)cc3)cc2)CC1 [Gedatolisib] | 0.148 | -69.6

SMILES | AC50 cell viability (HCT116 [1]) [µM] | efficacy (HCT116 [2]) [%]
NC/1=N/C(=O)N(/C=C1)[C@@H]2O[C@H](CO)[C@@H](O)C2(F)F [Gemcitabine] | 0.0263 | -71.9
CCc1nc(C(N)=O)c(Nc2ccc(N3CCC(N4CCN(C)CC4)CC3)c(OC)c2)nc1NC1CCOCC1 [Gilteritinib] | 1.66 | -65.1
CCN(CC)Cc1ccc2cc(COC(=O)Nc3ccc(C(=O)NO)cc3)ccc2c1 [Givinostat hydrochloride] | 0.263 | -88.8
COCCNCc1ccc(-c2cc3nccc(Oc4ccc(NC(=S)NC(=O)Cc5ccc(F)cc5)cc4F)c3s2)nc1 [Glesatinib] | 6.61 | -80.1
Cc1cncc2cccc([S+](=O)([O-])N3CCCN(C(=O)CN)C[C@@H]3C)c12 [Glycyl-H-1152] | 5.9 | -35.8
Cn1c2ccccc2c2c3c(c4c5ccccc5n(CCC#N)c4c21)CNC3=O [Go-6976] | 18.6 | -63
COC1=CC=C2[N](CCCN(C)C)C=C(C2=C1)C/3=C(/C(=O)NC3=O)C4=C[NH]C5=C4C=CC=C5 [Go-6983] | 10.5 | -111
CN1CCN(C2CCN(C(=O)Nc3cc(Oc4ccc(NC(=O)C5(C(=O)Nc6ccc(F)cc6)CC5)c(F)c4)ccn3)CC2)CC1 [Golvatinib] | 14.8 | -93.6
O=[S+]([O-])(NCCNC/C=C/c1ccc(Br)cc1)c1cccc2cnccc12 [H-89] | 18.6 | -88.2
O=C1S/C(=C\c2ccc(OCc3cccc(B(O)O)c3)cc2)C(=O)N1Cc1ccc(F)cc1 [HA-130] | 18.6 | -41.3
ONC(=O)C1=CC=C(C=C1)C/2=N/C3=CC=CC=C3OC4=C2C=CC=C4 [HDACi-01] | 2.95 | -85.9
O=C(NO)c1cnc(N2C[C@H]3C[C@@H]2CN3c2cc(C(F)(F)F)ccn2)nc1 [HDACi-02] | 1.48 | -86.6
CCN1CCN(Cc2ccc(NC(=O)c3ccc(C)c(/C=C/c4cnc5[nH]ccc5c4OC)c3)cc2C(F)(F)F)CC1 [HG-6-64-1] | 2.95 | -96.2
COCCOC(=O)C/1=C(C)/NC/2=C(C1C3=CC=CC(=C3)O)/C(=O)CC(C2)C4=C(OC)C=CC=C4 (centres undefined) [HPI-1] | 14.8 | -73.6
COc1cccc(-c2cc(F)ccc2C2Cc3nc(N)nc(C)c3C(=O)N2)n1 (centres undefined) [HSP-990] | 0.0525 | -64.3
CCCCN(CCCC)CCC(O)c1cc2c(Cl)cc(Cl)cc2c2cc(C(F)(F)F)ccc12.Cl (centres undefined) [Halofantrine] | 20.9 | -66.6
CC[S+](=O)([O-])Nc1ccc2c(c1)/C(=C(/Nc1ccc(CN3CCCCC3)cc1)c1ccccc1)C(=O)N2 [Hesperadin] | 0.235 | -90.4
CNC1CCC(N(Cc2cccc(-c3ccncc3)c2)C(=O)c2sc3c(F)ccc(F)c3c2Cl)CC1 (centres undefined) [Hh-Ag1.5] | 13.2 | -115
COc1cc(O)c2c(c1)C1OC1C[C@H](O)[C@H](O)C(=O)/C=C\C[C@H](C)OC2=O (some centres undefined) [Hypothemycin] | 3.72 | -72

SMILES | AC50 cell viability (HCT116 [1]) [µM] | efficacy (HCT116 [2]) [%]
COc1cc2c(cc1-c1c(C)noc1C)ncc1[nH]c(=O)n([C@H](C)c3ccccn3)c12 [I-BET151] | 1.32 | -77.4
CCNC(=O)C[C@@H]1\N=C(C2=CC=C(Cl)C=C2)/C3=C(C=CC(=C3)OC)[N]4C(=NN=C14)C [I-BET762] | 2.63 | -67
O=C1[C@H](Cc2ccc(O)cc2)N2C(=O)CCN(C(=O)NCc3ccccc3)[C@H]2CN1Cc1cccc2ccccc12 [ICG-001] | 2.09 | -67.2
N#Cc1c(C2CCNCC2)cc(-c2c(O)cccc2OCC2CC2)nc1N [IKK-2 Inhibitor VIII] | 10.5 | -89.2
O=C(c1ccc(Nc2nccc(-c3cc4ccccc4s3)n2)cc1)N1CCC(N2CCCC2)CC1 [IKK-16] | 6.61 | -106
O=C(Nc1cc(C(F)(F)F)cc(C(F)(F)F)c1)c1cc(Cl)ccc1O [IMD-0354] | 0.833 | -88.7
CC(C)n1nc(-c2ccc3oc(N)nc3c2)c2c(N)ncnc21 [INK-128] | 0.372 | -100
Nc1ccc(C(=O)c2cc3c(ccc4ccccc43)[nH]2)cc1 [IPFK2] | 4.81 | -102
CC(NC1=NC=NC2=C1[NH]C=N2)\C3=C\C4=C(C(=CC=C4)Cl)C(=O)N3C5=CC=CC=C5 (centres undefined) [IPI-145] | 14.8 | -58.5
C[C@H](NC(=O)C1=C2N=CC=C[N]2N=C1N)\C3=C\C4=CC=CC(=C4C(=O)N3C5=CC=CC=C5)C#CC6=C[N](C)N=C6 [IPI-549] | 8.11 | -43.1
O=C(Nc1nc2ccccc2n1CCN1CCOCC1)c1cccc([N+](=O)[O-])c1 [IRAK-1-4 Inhibitor I] | 14.8 | -64.8
CC(C)(C)OC(=O)Nc1ccc(-c2cc(C(=O)NCCCCCCC(=O)NO)no2)cc1 [ISOX] | 1.86 | -91.5
CCOC(=O)\C1=C(/C)N\C2=C(C1C3=CC=C(C=C3)C4=CC=CC=C4)\C(=O)CC(C)(C)C2 (centres undefined) [ITD-1] | 18.6 | -67.8
COc1cc(C)c(Sc2cnc(NC(=O)c3ccc(CNC(C)C(C)C)cc3)s2)cc1C(=O)N1CCN(C(C)=O)CC1 (centres undefined) [ITK Inhibitor] | 14.8 | -132
COc1ccc([S+](=O)([O-])N(C(C)=O)c2ccccc2/C=C/c2cc[n+]([O-])cc2)cc1 [IVX-214] | 4.17 | -59.1
CC(C)(NC(=O)O[C@@H]1CN2CCC1CC2)c1csc(-c2ccc(F)cc2)n1 [Ibiglustat] | 18.6 | -43.3
CC(=O)[C@]1(O)Cc2c(O)c3c(c(O)c2[C@@H](O[C@H]2C[C@H](N)[C@H](O)[C@H](C)O2)C1)C(=O)c1ccccc1C3=O [Idarubicin hydrochloride] | 0.661 | -83
COc1cc(C(=O)O)ccc1NC(=O)[C@@H]1N[C@@H](CC(C)(C)C)[C@](C#N)(c2ccc(Cl)cc2F)[C@H]1c1cccc(Cl)c1F [Idasanutlin] | 1.66 | -67.9
COC\1=C(/OC)C(=O)\C(=C(C)/C1=O)CCCCCCCCCCO [Idebenone] | 18.6 | -54.9
